Marks after values point to notes of the source that are not given here.
Experiments:
[1] = test system: aP2; test: RT-PCR of aP2 mRNA in epididymal fat tissue; format: in vivo, mouse; details: SPID vs HFD, relative to GAPDH, FIG. 4
Protocol: (§1) Accordingly, to identify that scopolin inhibits directly obesity-related gene expressions, the inventors examined whether obesity-related gene is expressed according to scopolin treatment through RNA was isolated from epididymal fat tissues obtained in the example 3 and performed RT-PCR.
(§2) First, after adding 1 mL of Trizol agent per 0.1 g of epididymal fat tissues, the mixture was homogenized and centrifuged at 12,000×g for 10 min at 4° C. The supernatant was transferred to a new tube and 200 μl of chloroform was added to the tube, followed by vortexing. The same procedure was repeated twice and then the supernatant was transferred to a new tube, followed by addition of isopropanol and the supernatant at 1:1 ratio. The mixture was vigorously shaken 10 times and then incubated for 10 min at room temperature, followed by centrifugation at 12,000×g for 10 min at 4° C. to remove the supernatant. After adding 1 mL of 70% ethanol to the remaining pellet, it was centrifuged at 7,500×g for 5 min at 4° C. After removing the ethanol, the RNA pellet contained in the tube was dried for 5 min at 4° C. and dissolved in nuclease-free water. The RNA concentration of sample was measured at a wavelength of 260 nm and 280 nm using a UV/VIS spectrophotometer (Beckman coulter, DU730) and the integrity of RNA sample was verified by agarose gel electrophoresis. […]

[2] = test system: C/EBPα; test: RT-PCR of C/EBPα mRNA in epididymal fat tissue; format: in vivo, mouse; details: SPID vs HFD, relative to GAPDH, FIG. 4
Protocol: as §1, §2

[3] = test system: UCP1; test: RT-PCR of UCP1 mRNA in epididymal fat tissue; format: in vivo, mouse; details: HFD-induced decrease, relative to GAPDH, FIG. 5
Protocol: as §1, §2

[4] = Body weight and visceral fat weight in high-fat diet fed mice, 10 weeks; format: in vivo, mouse; details: 0.02% scopolin in high-fat diet
Protocol: (§3) The obesity-inducing control diet used in the present test was high-fat diet (HFD: 40% fat calorie, 17 g lard+3% corn oil/100 g diet). Diets supplemented with scopolin had the same composition as HF, except that each derivative was included at 0.02%. The diabetic drug metformin was added at 0.1% or the hyperlipidemic drug atorvastatin was added at 0.01% to HFD as controls. The normal diet (ND) was prepared according to the AIN-76 rodent diet composition (American Institute of Nutrition, Report of the American Institute of Nutrition ad hoc committee on standards for nutritional studies. J. Nutr., 107: 1340-1348, (1977)) (Table 1).
(§4) 5-week-old male […] mice (Orient, Korea) were accustomed to the laboratory environment for 1 week while feeding solid feed. Then, they were randomly divided into high-fat diet and test groups and bred for a total of 10 weeks. The diet was given between 10 and 11 a.m. every day together with water. Food intake was measured every day and body weight was measured once a week. In order to avoid transient body weight increase after feed intake, body weight was measured 2 hours after removing the feed.
(§5) After fasting the test animal for at least 12 hours and anesthetizing with diethyl ether, blood, liver and visceral fat (epididymal fat, perirenal fat, mesenteric fat and retroperitoneal fat) were taken and weighed after washing with 0.1 M PBS (pH 7.4). Blood taken from the abdominal aorta was centrifuged at 1000×g for 15 minutes for the separation of plasma.

[5] = Liver weight and liver tissue lipid levels in high-fat diet fed mice; format: in vivo, mouse; details: SPID group, 10 weeks
Protocol: as §3, §4, §5
In addition, lipids were extracted from the liver tissue according to Folch et al.'s method (Folch J, Lees M, Sloane Stanley G H. A simple method for the isolation and purification of total lipides from animal tissues. J Biol. Chem. 1957; 226:497-509). After adding 1 mL of distilled water to 0.25 g of the liver tissue, the liver tissue was homogenized using a Polytron homogenizer (IKA-Werke GmbH & Co., Ultra-Turrax, Staufen, Germany). After adding 5 mL of chloroform:methanol solution (2:1, v/v) to the homogenate and mixing well, the mixture was centrifuged at 1000×g for 10 minutes. After adding 2 mL of chloroform:methanol solution (2:1, v/v) again to the supernatant, the same procedure was repeated to completely separate the lipid components of the liver. After adding 3 mL of chloroform:methanol:0.05% CaCl2 (3:48:47, v/v/v) solution to the remaining pellets and mixing well for 1 minute, followed by centrifugation at 1000×g for 10 minutes, the resulting pellets were completely dried with nitrogen gas. The dried lipids were dissolved in 1 mL of methanol and then analyzed. The commercially available kits (Bio Clinical System, Korea) were used to measure the levels of triglyceride, cholesterol and free fatty acids of the liver tissue.

[6] = ALT and AST activities (liver function indicators) in high-fat diet fed mice; format: in vivo, mouse; details: SPID group, 10 weeks
Protocol: as §3, §4, §5
(§6) After 10 weeks of breeding, total cholesterol, HDL-cholesterol, triglyceride and glucose levels in the plasma and lipid levels in the liver tissue were measured as follows: Total cholesterol, HDL-cholesterol, triglyceride, free fatty acid and glucose levels in the plasma were measured twice for each using a commercially available kit (Bio Clinical System). The level of LDL+VLDL in plasma was calculated by subtracting HDL level from the total cholesterol level. The activities of ALT (alanine aminotransferase) and AST (aspartate aminotransferase) used as liver function indicator were measured using a commercially available kit (Bio Clinical System, Korea).

[7] = test system: mouse intraperitoneal macrophages; details: macrophages stimulated with ionophore; J Nat Prod 1996; cited from earlier work
[8] = test system: UCP3; test: RT-PCR of UCP3 mRNA in epididymal fat tissue; format: in vivo, mouse; details: HFD-induced decrease, relative to GAPDH, FIG. 5
Protocol: as §1, §2

[9] = Plasma lipid and glucose levels in high-fat diet fed mice; format: in vivo, mouse; details: SPID group, 10 weeks
Protocol: as §3, §4, §5, §6

[10] = molecular target: acetylcholine esterase (Homo sapiens, UniProt P22303); details: J Med Chem 2004; cited from earlier work
[11] = test system: PPARγ2; test: RT-PCR of PPARγ2 mRNA in epididymal fat tissue; format: in vivo, mouse; details: SPID vs HFD, relative to GAPDH, FIG. 4
Protocol: as §1, §2

[12] = test system: 3T3-L1 cells; test: Inhibition of adipocyte differentiation in 3T3-L1 cells (Oil Red O staining); format: cell-based, mouse; details: scopolin 0.1, 1, 10, 50 and 100 μM, 14 days, FIG. 1
Protocol: Mouse adipocyte cell line (3T3-L1) was used to investigate the effect of scopolin on differentiation and growth of adipocytes. The preadipocytes, 3T3-L1 cells, were seeded on a 12-well plate and cultured to confluency using Dulbecco's modified Eagle's medium (DMEM) containing 1% penicillin-streptomycin, 1% non-essential amino acid and 10% fatal bovine serum (FBS), in a 5% CO2 incubator at 37° C. The 3T3-L1 cells grown to confluency were cultured for 2 days in MDI medium containing 0.5 mM isobutylmethylxanthine, 1 μM dexamethasone and 1 μg/mL insulin to differentiate them into differention adipocytes. Then, the cells were further cultivated in DMEM containing 1 μg/mL insulin to differentiate them into mature adipocytes. The cells were further cultured for 10 more days while replacing DMEM every other day to obtain fully differentiated adipocytes.
From the first day when MDI was added to the 3T3-L1 cells, scopolin was treated at concentrations of 0.1, 1, 10, 50 and 100 μM with 2-day intervals. Scopolin was used after being dissolved in DMSO. Only DMSO was added to the negative control group. […] In order to measure the level of triglyceride contained in the differentiated 3T3-L1 cells, the stained lipid droplets were dissolved in 1 mL of isobutanol and optical density (OD) value was measured at 600 nm.

acetylcholine esterase, sequence (P22303 32-614): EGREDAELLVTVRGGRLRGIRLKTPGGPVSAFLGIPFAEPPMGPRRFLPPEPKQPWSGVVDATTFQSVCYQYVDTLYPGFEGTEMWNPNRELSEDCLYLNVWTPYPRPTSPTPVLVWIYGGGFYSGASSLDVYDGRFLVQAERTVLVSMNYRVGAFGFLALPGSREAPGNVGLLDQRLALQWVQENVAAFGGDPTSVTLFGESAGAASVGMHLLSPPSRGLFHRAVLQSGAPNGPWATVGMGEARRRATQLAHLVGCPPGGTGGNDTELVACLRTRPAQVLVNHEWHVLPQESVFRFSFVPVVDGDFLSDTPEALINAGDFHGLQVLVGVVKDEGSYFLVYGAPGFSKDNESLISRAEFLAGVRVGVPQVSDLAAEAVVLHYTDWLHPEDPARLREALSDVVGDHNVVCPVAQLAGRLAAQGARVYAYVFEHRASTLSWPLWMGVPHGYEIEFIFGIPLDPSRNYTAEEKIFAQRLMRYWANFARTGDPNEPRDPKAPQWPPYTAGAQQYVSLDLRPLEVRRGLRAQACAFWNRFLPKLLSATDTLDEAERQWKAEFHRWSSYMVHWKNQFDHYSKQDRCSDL

COc1cc2ccc(=O)oc2cc1OC1OC(CO)C(O)C(O)C1O [scopolin, 7-(beta-D-glucopyranosoyloxy)-6-methoxy-2H-1-benzopyran-2-one]
aP2 mRNA expression level [1]: significantly reduced expressions | C/EBPα mRNA expression level [2]: significantly reduced expressions | UCP1 mRNA expression level [3]: significantly reversed | decrease of cumulative body weight gain as compared to HFD [4]: 22% | decrease of final body weight as compared to HFD [4]: 10% | reduction of epididymal fat-pad weight as compared to HFD [4]: 29% | reduction of mesenteric fat-pad weight as compared to HFD [4]: 28% | reduction of perirenal fat-pad weight as compared to HFD [4]: 33% | reduction of retroperitoneal fat-pad weight as compared to HFD [4]: 31% | reduction of total visceral fat weight as compared to HFD [4]: 30% | decrease of cholesterol in liver tissue as compared to HFD [5]: 21% | decrease of free fatty acid in liver tissue as compared to HFD [5]: 33% | decrease of triglyceride in liver tissue as compared to HFD [5]: 22% | reduction of absolute weight of liver as compared to HFD [5]: 23% | Liver weight ([5]; mean±SEM, n=8): 1.7 ± 0.14^b g | Cholesterol ([5]; liver tissue, mean±SEM, n=8): 102.9 ± 5.4^b μmol/g | Free fatty acid ([5]; liver tissue, mean±SEM, n=8): 33.6 ± 4.6^b μEq/g | Triglyceride ([5]; liver tissue, mean±SEM, n=8): 55.6 ± 5.3^b μmol/g | decrease of plasma activity of ALT as compared to HFD [6]: 46% | decrease of plasma activity of AST as compared to HFD [6]: 41% | ALT (alanine aminotransferase) ([6]; plasma activity, mean±SEM, n=8): 5.55 ± 0.78^b IU/L | AST (aspartate aminotransferase) ([6]; plasma activity, mean±SEM, n=8): 5.80 ± 0.43 IU/L | eicosanoid release [7]: suppression of eicosanoid release | UCP3 mRNA expression level [8]: significantly reversed | lower plasma level of LDL+VLDL cholesterol as compared to HFD [9]: 30% | lower plasma level of free fatty acid as compared to HFD [9]: 27% | lower plasma level of total cholesterol as compared to HFD [9]: 23% | lower plasma level of triglyceride as compared to HFD [9]: 28% | reduction of the fasting blood sugar level as compared to HFD [9]: 16% | Free fatty acid ([9]; plasma, mean±SEM, n=8): 635 ± 65.6^b μEq/g | Total cholesterol ([9]; plasma, mean±SEM, n=8): 5.07 ± 0.26^b mmol/l | Triglyceride ([9]; plasma, mean±SEM, n=8): 0.65 ± 0.07^b mmol/l | LDL + VLDL cholesterol ([9]; plasma, total cholesterol minus HDL): 3.88 ± 0.27^b mmol/l | Glucose ([9]; plasma, fasting, mean±SEM, n=8): 7.51 ± 0.32^b mmol/l | acetylcholine esterase inhibition [10]: inhibits acetylcholine esterase | PPARγ2 mRNA expression level [11]: significantly reduced expressions | differentiation of the preadipocytes (Oil Red O staining) [12]: reduced the differentiation of the preadipocytes in a concentration-dependent manner

Source: US8828954B2, “Use for scopolin and derivatives thereof” (Yonsei University Technology Holdings, Inc., priority 2010, dated 2014)
